Literature values in US11439614B2, “Fish egg extracts, omega-3 lipid-based compositions and uses thereof” (BIOFLASH INC., priority 2017, dated 2022).

Test system: ADHD symptoms

| Compound | Hyperactivity (200 mg daily for 6 months, 75 children with ADHD, vs conventional treatment (Starobat-Hermelin et al, 1997)) | Help for children with ADHD (150 mg for 12 weeks alone or 55 mg for 6 weeks with a conventional drug, 440 children) |
| --- | --- | --- |
| [Mg+2] [magnesium] | decreased Hyperactivity |  |
| O=S(=O)([O-])[O-].[Zn+2] [zinc sulfate] |  | could significantly help children with this condition |
